# ChEMBL document CHEMBL4765314, “Rational design and biological evaluation of gemfibrozil modified Xenopus GLP-1 derivatives as long-acting hypoglycemic agents” (Eur J Med Chem, 2020)
# Calls of active or inactive are those of the source. No cut-off for these calls is given here. Starred links: 1 amine or outer side, 2 acyl side, 3 side chain; linkers in the order of their positions; H or OH if unused. Non-standard residues stand in square brackets, D forms with d. Groups on a side chain read outwards from the residue. ξ: configuration not given here. *: point of attachment. X1 = Cc1ccc(C)c(OCCCC(C)(C)C(=O)OCC(=O)NCCCCCCCCCC(NC(=O)COC(=O)C(C)(C)CCCOc2cc(C)ccc2C)C(=O)*)c1; X2 = Cc1ccc(C)c(OCCCC(C)(C)C(=O)OCC(=O)NCCCCC(NC(=O)COC(=O)C(C)(C)CCCOc2cc(C)ccc2C)C(=O)*)c1; Glycoloyl(O-gemfibrozoyl) = Cc1ccc(C)c(OCCCC(C)(C)C(=O)OCC(=O)*)c1; γGlu = O=C(O)[C@H](CCC(=O)[*:2])N[*:1]; ξK = NCCCCC(N)C(=O)O; Ahx = NCCCCCC(=O)O
# Experiments:
# [1] = target: Albumin (Homo sapiens, UniProt P02768); experiment: Binding affinity to human serum albumin assessed as retention factor by HPAC method; assay type: ADME
# Chain of Albumin (P02768 whole entry): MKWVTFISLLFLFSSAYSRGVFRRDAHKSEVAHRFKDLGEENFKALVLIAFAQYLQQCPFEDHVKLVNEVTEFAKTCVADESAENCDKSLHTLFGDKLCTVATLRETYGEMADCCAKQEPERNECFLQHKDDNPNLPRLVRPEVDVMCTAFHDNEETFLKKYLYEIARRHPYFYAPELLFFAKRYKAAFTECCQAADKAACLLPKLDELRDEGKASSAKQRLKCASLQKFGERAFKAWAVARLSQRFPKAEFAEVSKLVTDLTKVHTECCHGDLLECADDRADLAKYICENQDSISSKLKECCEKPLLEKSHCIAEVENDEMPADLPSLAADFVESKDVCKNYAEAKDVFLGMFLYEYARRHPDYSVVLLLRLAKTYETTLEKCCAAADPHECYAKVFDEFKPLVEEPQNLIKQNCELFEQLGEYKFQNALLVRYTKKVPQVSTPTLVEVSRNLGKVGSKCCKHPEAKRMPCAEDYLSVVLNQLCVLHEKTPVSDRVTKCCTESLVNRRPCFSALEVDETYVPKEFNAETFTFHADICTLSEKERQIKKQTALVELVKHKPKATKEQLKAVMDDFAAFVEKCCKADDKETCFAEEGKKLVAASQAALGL
# [2] = tested on: Mus musculus; experiment: Hypoglycemic activity in 12 hrs fasted ICR mouse assessed as reduction in blood glucose level at 25 nmol/kg, ip dosed 30 mins before glucose challenge measured up to 120 mins by OGTT method; assay type: functional, organism-based; settings: time 150.0 min
# [3] = Stability in Sprague-Dawley rat plasma assessed as half life at 1000 ng/ml measured up to 48 hrs under shaking condition by LC-MS/MS analysis; assay type: ADME, cell-free
# [4] = target: Glucagon-like peptide 1 receptor (Homo sapiens, UniProt P43220); experiment: Agonist activity at human GLP-1R expressed in HEK293 cells assessed as stimulation of cAMP accumulation incubated for 60 mins by HTRF assay; assay type: functional, cell-based
# Chain of Glucagon-like peptide 1 receptor (P43220 whole entry): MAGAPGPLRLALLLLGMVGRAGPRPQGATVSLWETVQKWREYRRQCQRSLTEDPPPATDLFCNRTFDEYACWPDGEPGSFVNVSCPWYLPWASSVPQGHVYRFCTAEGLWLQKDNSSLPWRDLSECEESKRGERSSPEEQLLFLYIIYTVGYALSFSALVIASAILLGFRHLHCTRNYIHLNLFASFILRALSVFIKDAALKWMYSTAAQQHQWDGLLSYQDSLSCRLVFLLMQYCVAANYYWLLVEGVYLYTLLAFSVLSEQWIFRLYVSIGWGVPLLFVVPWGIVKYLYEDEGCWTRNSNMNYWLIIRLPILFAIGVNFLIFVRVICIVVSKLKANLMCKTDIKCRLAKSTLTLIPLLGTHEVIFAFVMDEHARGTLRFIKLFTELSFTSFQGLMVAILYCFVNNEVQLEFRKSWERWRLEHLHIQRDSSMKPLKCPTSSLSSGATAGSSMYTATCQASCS
# [5] = tested on: Mus musculus; experiment: Hypoglycemic activity in non-fasted db/db […] mouse assessed as reduction in blood glucose level at 25 nmol/kg, ip dosed 30 mins before glucose challenge measured up to 120 mins by OGTT method; assay type: functional, organism-based
# [6] = Renal toxicity in ICR mouse assessed as effect on blood urea nitrogen level at 100 nmol/kg, sc administered once daily for 2 weeks; assay type: organism-based; settings: in vivo, 336 h
# [7] = Hepatotoxicity in ICR mouse assessed as effect on aspartate aminotransferase level at 100 nmol/kg, sc administered once daily for 2 weeks; assay type: toxicity, organism-based; settings: in vivo, 336 h
# [8] = Hepatotoxicity in ICR mouse assessed as effect on alanine aminotransferase level at 100 nmol/kg, sc administered once daily for 2 weeks; assay type: toxicity, organism-based; settings: in vivo, 336 h
# [9] = Renal toxicity in ICR mouse assessed as effect on serum creatinine level at 100 nmol/kg, sc administered once daily for 2 weeks; assay type: organism-based; settings: in vivo, 336 h
# [10] = tested on: Mus musculus; experiment: Improvement in glucose tolerance in standard chow diet fed C57BL/6 mouse at 25 nmol/kg, sc administered every 2 days for 21 days; assay type: functional, organism-based; settings: time 21.0 day
# [11] = tested on: Mus musculus; experiment: Reduction in body fat content in C57BL/6 mouse model of high-fat diet induced obesity at 25 nmol/kg, sc administered every two days for 21 days relative to control; assay type: functional, organism-based; design: scale not given: the % may be the effect or the level left; settings: time 21.0 day
# [12] = tested on: Mus musculus; experiment: Reduction in serum triglyceride in C57BL/6 mouse model of high-fat diet induced obesity at 25 nmol/kg, sc administered every two days for 21 days; assay type: functional, organism-based; settings: time 21.0 day
# [13] = tested on: Mus musculus; experiment: Reduction in HbA1c level in db/db mouse at 25 nmol/kg, sc administered every two days for 42 days by OGTT; assay type: functional, organism-based; settings: time 42.0 day
# [14] = tested on: Mus musculus; experiment: Reduction in serum LDL level in C57BL/6 mouse model of high-fat diet induced obesity at 25 nmol/kg, sc administered every two days for 21 days; assay type: functional, organism-based; settings: time 21.0 day
# [15] = tested on: Mus musculus; experiment: Hypoglycemic activity in 16 hrs fasted db/db mouse assessed as reduction in blood glucose level at 25 nmol/kg, ip treated 30 mins before glucose challenge and measured at 0 to 24 hrs by multiple OGTT; assay type: functional, organism-based; settings: time 1470.0 min
# [16] = tested on: Mus musculus; experiment: Inhibition of fat mass gain in normal chow diet fed C57BL/6 mouse at 25 nmol/kg, sc administered every two days for 21 days; assay type: functional, organism-based; settings: time 21.0 day
# [17] = tested on: Mus musculus; experiment: Inhibition of solid-phase gastric emptying in 12 hrs fasted ICR mouse assessed reduction in gastric emptying rate at 25 nmol/kg, ip allowed for food intake 1 hrs and measured after 4 hrs […]; assay type: functional; design: scale not given: the % may be the effect or the level left
# [18] = tested on: Mus musculus; experiment: Anorectic effect in normal chow diet fed C57BL/6 mouse assessed as reduction in food intake at 25 nmol/kg, sc administered every two for 21 days; assay type: functional, organism-based; settings: time 21.0 day
# [19] = tested on: Mus musculus; experiment: Improvement in glucose tolerance in db/db mouse assessed as time for superior hypoglycemic effect by measuring glucose AUC at 25 nmol/kg, sc administered twice daily for 42 days by OGTT; assay type: functional, organism-based; settings: time 42.0 day
# [20] = tested on: Mus musculus; experiment: Hypoglycemic activity in normal chow diet fed C57BL/6 mouse assessed as fasting blood glucose at 25 nmol/kg, sc administered every two for 21 days; assay type: functional, organism-based; settings: time 21.0 day
# [21] = tested on: Mus musculus; experiment: Effect in normal chow diet fed C57BL/6 mouse assessed as reduction in body weight increase at 25 nmol/kg, sc administered every two days for 21 days (reference value: 10.8%); assay type: functional, organism-based; design: scale not given: the % may be the effect or the level left; settings: time 21.0 day
# [22] = tested on: Mus musculus; experiment: Increase in serum HDL level in C57BL/6 mouse model of high-fat diet induced obesity at 25 nmol/kg, sc administered every two days for 21 days; assay type: functional, organism-based; settings: time 21.0 day
# [23] = tested on: Mus musculus; experiment: Reduction in serum total cholesterol in C57BL/6 mouse model of high-fat diet induced obesity at 25 nmol/kg, sc administered every two days for 21 days; assay type: functional, organism-based; settings: time 21.0 day
# [24] = tested on: Mus musculus; experiment: Improvement in glucose tolerance in db/db mouse at 25 nmol/kg, sc administered every 2 days for 42 days by OGTT; assay type: functional, organism-based; settings: time 42.0 day
# [25] = tested on: Mus musculus; experiment: Reduction in body weight in C57BL/6 mouse model of diet induced obesity at 25 nmol/kg, sc administered every two days for 21 days relative to control; assay type: functional, organism-based; design: scale not given: the % may be the effect or the level left; settings: time 21.0 day
substance,measurement,setting,value
H-HGEGTYTNDVTEYLEEEAAK([γGlu-X1])EFIEWLIKGKPSSGAPPSKKKKKK-OH,K,[1],12.1
same,Activity,[2],inactive
same,half-life at 1000 ng/ml,[3],33.9 h
same,EC50,[4],0.31 nM
H-HGEGTYTNDVTEYLEEEAA[ξK]([γGlu-Ahx-Glycoloyl(O-gemfibrozoyl)])EFIEWLIKGKPSSGAPPSKKKKKK-OH,K,[1],6.4
same,Activity,[2],Active
same,half-life at 1000 ng/ml,[3],16.3 h
same,EC50,[4],0.053 nM
H-HGEGTYTNDVTEYLEEEAA[ξK]([γGlu-X2])EFIEWLIKGKPSSGAPPSKKKKKK-OH,K,[1],11.2
same,Activity,[2],Active
same,half-life at 1000 ng/ml,[3],29.5 h
same,Activity,[5],Active
same,EC50,[4],0.091 nM
SEMAGLUTIDE [listing 1 of 2 here],Activity,[6],Non-Toxic
same,Activity,[7],Non-Toxic
same,Activity,[8],Non-Toxic
same,Activity,[9],Non-Toxic
SEMAGLUTIDE [listing 2 of 2 here],Activity,[10],inactive
same,Activity,[11],25.5%
same,Activity,[12],Active
same,Activity,[13],Active
same,Activity,[14],Active
same,Activity,[15],Active
same,Activity,[16],Active
same,Activity,[17],52%
same,Activity,[18],Active
same,TIME,[19],1680 h
same,Activity,[20],inactive
same,Activity,[21],6.7%
same,Activity,[22],inactive
same,Activity,[23],Active
same,Activity,[24],Active
same,Activity,[25],13.4%
